Laboratory results published in article PMC3479967 (Evidence-based Complementary and Alternative Medicine : eCAM, 2012).

Key:
[1] = target: T1, UGT1A1 (Homo sapiens, UniProt P22309); test: Inhibition of recombinant UGT1A1 activity (4-MU glucuronidation)
T1 sequence (P22309 26-533): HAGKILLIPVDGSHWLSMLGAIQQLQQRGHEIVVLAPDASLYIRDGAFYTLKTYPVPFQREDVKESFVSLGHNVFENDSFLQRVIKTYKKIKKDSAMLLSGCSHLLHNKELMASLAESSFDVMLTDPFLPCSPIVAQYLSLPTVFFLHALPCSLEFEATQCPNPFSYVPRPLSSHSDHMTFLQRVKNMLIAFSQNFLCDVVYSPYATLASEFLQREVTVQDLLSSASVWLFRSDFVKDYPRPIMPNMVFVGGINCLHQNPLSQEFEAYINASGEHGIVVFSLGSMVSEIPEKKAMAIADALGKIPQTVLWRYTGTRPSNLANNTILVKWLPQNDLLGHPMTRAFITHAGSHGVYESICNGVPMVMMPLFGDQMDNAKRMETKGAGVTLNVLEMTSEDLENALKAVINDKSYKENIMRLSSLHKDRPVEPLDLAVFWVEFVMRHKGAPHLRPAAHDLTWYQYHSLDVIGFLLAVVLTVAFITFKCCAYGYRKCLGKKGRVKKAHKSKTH
Experimental: (§1) A panel of recombinant human UGT supersomes (UGT1A1, UGT1A3, UGT1A4, UGT1A6, UGT1A7, UGT1A8, UGT1A9, UGT1A10, UGT2B4, UGT2B7, UGT2B15, and UGT2B17) expressed in baculovirus-infected insect cells were purchased from BD Gentest Corp. (Woburn, MA, USA).
(§2) 4-MU, a nonselective substrate of UGTs, was used as probe substrate for all UGTs except UGT1A4. Incubations with each individual enzyme were conducted using conditions previously described. There was a 5 min preincubation step at 37°C before the reaction was started by addition of UDPGA. The incubation mixtures were then centrifuged at 20,500 ×g for 15 min to obtain the supernatant. Aliquots (20 μL) were then analyzed by HPLC. The HPLC system (SHIMADZU, Kyoto, Japan) consisted of an SCL-10A system controller, two LC-10AT pumps, a SIL-10A auto injector, and a SPD-10AVP UV detector. Chromatographic separation was achieved using a Kromasil ODS column (4.6 × 150 mm I.D., 5 μm particle size) at a flow rate of 1 mL/min and UV detection at 316 nm. The mobile phase consisted of 10 mM KH2PO4, pH 2.7 (A) and acetonitrile (B). The following gradient was applied at a flow rate of 1 mL/min: 0–4 min 80% A and 20% B, 4.1–8 min 50% A and 50% B, 8.1–12 min, 30% A and 70% B. All experiments were performed in two independent experiments in duplicate.
(§3) A typical incubation mixture contained recombinant human UGTs, 5 mM MgCl2, 5 mM UDPGA, 50 μg/mg protein alamethicin, 50 mM Tris-HCl buffer (pH 7.4), and various probe substrates of UGTs in the absence or presence of different concentrations of inhibitors. […] The final concentration of DMSO in the incubation system was 1% (v/v). […]
(§4) Inhibition data from experiments were graphically represented by Dixon plots. K i values were calculated by nonlinear regression using the equations for competitive inhibition (1), noncompetitive inhibition (2), or mixed inhibition (3), [22] […] The type of inhibition was determined from the enzyme inhibition models. Goodness of fit to kinetic and inhibition models was assessed from the F statistic, r ^2 values, parameter standard error estimates, and 95% confidence intervals. […]

[2] = target: T2, UGT2B17 (Homo sapiens, UniProt O75795); test: Inhibition of recombinant UGT2B17 activity (4-MU glucuronidation)
T2 sequence (O75795 24-530): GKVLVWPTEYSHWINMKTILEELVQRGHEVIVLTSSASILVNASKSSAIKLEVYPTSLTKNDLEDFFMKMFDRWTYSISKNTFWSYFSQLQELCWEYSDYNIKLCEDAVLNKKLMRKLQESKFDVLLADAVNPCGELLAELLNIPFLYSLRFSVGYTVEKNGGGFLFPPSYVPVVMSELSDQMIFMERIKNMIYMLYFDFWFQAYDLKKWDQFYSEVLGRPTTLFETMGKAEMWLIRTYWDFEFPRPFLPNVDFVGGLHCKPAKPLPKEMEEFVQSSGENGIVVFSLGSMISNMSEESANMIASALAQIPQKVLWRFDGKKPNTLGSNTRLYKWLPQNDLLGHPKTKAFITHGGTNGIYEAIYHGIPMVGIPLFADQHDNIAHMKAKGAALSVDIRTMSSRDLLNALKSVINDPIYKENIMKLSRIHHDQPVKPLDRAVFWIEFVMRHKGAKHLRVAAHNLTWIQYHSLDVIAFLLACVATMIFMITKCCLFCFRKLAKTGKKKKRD
Experimental: as §1, §2, §3, §4

COc1ccc(-c2oc3c(CC=C(C)C)c(O)cc(O)c3c(=O)c2O)cc1 [Icaritin]
IC50 [1]: > 100 µM | IC50 [2]: > 100 µM

COc1ccc(-c2oc3c(CC=C(C)C)c(O[C@@H]4O[C@H](CO)[C@@H](O)[C@H](O)[C@H]4O)cc(O)c3c(=O)c2O)cc1 [Icariside I]
IC50 [1]: > 100 µM | IC50 [2]: > 100 µM

COc1ccc(-c2oc3c(CC=C(C)C)c(O[C@@H]4O[C@H](CO)[C@@H](O)[C@H](O)[C@H]4O)cc(O)c3c(=O)c2O[C@@H]2O[C@@H](C)[C@H](O)[C@@H](O)[C@H]2O)cc1 [Icariin]
IC50 [1]: > 100 µM | IC50 [2]: > 100 µM
